# In patent US20240327364A1, “THERAPEUTIC TARGETING OF GPR68 TO INDUCE FERROPTOSIS” (University Of Maryland, Baltimore, priority 2023, published 2024):
# Like-named read-outs stand apart in the source and are kept apart here.
# Tests used:
# ERBB2 = molecular target: T1, ERBB2 (Homo sapiens, UniProt P04626); assay: KinomeScan; format: binding; conditions: read-out: % Control
# T1 construct: purchased DiscoveRx (Fremont, CA)
# ZAP70 = molecular target: T2, ZAP70 (Homo sapiens, UniProt P43403); assay: KinomeScan; format: binding; conditions: read-out: % Control
# T2 construct: purchased DiscoveRx
# T2 sequence (P43403 whole entry): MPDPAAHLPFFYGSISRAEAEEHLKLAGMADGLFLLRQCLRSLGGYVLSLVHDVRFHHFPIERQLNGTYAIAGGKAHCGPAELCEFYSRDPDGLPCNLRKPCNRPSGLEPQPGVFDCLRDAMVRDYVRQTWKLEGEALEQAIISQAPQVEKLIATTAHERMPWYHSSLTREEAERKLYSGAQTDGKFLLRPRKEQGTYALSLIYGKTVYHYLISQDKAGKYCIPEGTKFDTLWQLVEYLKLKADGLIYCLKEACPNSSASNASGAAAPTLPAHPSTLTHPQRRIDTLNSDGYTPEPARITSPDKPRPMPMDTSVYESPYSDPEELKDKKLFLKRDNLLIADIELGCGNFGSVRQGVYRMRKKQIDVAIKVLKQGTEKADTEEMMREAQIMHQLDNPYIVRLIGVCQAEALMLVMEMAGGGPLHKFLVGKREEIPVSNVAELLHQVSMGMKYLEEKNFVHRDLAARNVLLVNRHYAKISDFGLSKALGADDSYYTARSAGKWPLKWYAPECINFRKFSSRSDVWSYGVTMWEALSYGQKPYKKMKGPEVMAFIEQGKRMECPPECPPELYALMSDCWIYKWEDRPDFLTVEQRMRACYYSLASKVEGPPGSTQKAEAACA
# OT = molecular target: T3, OT (Homo sapiens, UniProt P30559); assay: GPCR Profiler; format: cell-based
# T3 construct: host or cells: Chem-1 cells expressing Gα15
# T3 sequence (P30559 whole entry): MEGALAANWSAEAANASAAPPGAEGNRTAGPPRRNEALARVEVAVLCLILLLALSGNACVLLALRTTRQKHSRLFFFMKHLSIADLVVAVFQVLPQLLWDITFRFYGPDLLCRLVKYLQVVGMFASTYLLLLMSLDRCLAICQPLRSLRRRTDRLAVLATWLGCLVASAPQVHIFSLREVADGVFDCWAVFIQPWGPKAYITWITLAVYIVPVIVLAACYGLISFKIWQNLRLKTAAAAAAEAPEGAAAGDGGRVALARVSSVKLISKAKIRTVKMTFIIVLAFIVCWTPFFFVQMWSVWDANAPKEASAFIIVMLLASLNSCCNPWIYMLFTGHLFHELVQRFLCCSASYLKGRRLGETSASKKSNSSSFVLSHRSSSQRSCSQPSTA
# PRKCD = molecular target: T4, PRKCD (Homo sapiens, UniProt Q05655); assay: KinomeScan; format: binding; conditions: read-out: % Control
# T4 construct: purchased DiscoveRx (Fremont, CA)
# T4 sequence (Q05655 whole entry): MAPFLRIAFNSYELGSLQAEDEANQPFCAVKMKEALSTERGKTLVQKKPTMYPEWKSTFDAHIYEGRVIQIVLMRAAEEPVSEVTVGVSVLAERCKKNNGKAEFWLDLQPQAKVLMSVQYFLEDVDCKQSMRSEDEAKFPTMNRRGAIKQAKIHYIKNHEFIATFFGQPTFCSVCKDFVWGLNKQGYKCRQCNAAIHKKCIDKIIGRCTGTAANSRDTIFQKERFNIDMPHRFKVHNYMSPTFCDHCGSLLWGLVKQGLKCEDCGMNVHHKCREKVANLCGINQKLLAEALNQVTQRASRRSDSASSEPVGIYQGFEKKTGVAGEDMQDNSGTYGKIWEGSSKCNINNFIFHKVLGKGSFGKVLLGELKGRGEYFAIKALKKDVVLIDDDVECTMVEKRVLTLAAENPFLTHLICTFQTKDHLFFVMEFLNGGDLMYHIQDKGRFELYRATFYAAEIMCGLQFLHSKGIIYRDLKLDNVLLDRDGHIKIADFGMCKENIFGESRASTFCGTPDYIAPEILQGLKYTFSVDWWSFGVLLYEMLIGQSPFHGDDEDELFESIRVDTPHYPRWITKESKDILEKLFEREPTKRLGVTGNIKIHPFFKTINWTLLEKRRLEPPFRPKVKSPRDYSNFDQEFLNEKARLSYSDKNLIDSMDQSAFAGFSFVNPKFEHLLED
# EPHB1 = molecular target: T5, EPHB1 (Homo sapiens, UniProt P54762); assay: KinomeScan; format: binding; conditions: read-out: % Control
# T5 construct: purchased DiscoveRx (Fremont, CA)
# T5 sequence (P54762 18-984): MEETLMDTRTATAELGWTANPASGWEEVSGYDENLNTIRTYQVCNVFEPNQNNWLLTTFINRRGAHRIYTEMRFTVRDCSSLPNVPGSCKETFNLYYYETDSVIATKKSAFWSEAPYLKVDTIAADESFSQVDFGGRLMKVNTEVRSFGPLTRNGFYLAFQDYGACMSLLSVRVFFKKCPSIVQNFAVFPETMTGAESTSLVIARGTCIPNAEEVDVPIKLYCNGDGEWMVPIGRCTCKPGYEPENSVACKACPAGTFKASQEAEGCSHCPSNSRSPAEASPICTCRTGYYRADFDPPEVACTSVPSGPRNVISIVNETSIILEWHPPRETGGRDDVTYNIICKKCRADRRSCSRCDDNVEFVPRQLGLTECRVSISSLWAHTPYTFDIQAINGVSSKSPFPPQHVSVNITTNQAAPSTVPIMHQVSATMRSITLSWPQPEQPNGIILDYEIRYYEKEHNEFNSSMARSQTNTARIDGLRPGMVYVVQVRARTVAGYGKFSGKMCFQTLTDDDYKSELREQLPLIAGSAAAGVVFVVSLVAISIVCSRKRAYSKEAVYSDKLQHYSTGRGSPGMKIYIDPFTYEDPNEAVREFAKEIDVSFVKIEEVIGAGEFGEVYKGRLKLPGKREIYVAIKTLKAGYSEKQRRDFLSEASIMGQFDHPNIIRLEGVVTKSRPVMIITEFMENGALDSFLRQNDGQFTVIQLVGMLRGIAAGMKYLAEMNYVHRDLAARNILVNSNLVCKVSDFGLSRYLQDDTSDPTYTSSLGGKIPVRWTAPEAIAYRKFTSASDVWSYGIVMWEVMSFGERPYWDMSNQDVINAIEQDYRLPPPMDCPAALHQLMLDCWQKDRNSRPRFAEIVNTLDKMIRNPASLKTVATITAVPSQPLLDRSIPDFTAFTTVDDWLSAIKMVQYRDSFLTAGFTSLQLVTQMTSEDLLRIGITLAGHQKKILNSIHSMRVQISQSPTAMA
# A549 = assay: Acid-induced Mucin-5AC production; format: cell-based, human; conditions: pH 6.4 buffered media, 24 hours
# Description: Lung (A549) cells were plated in 6-well plates. The cells then were rinsed and protein was isolated. Dot blots were made with anti Mucin-5AC antibodies, and an equivalent amount of protein was run on a western blot to detect alpha tubulin. Lung (A549) cells were cultured as above, but in pH 6.4 buffered media with increasing concentrations of OGM2. Mucin5AC and alpha tubulin were detected in the same way.
# In addition. A549 cells were cultured in pH 6.4 medium with or without OGM2 for 24 hours cells were then rinsed and then stained with Periodic Acid Staining solution which detects mucins. FIG. 30E is a schematic of cas9 mediated endogenous tagging of MU5AC genetic locus with nano-luciferase in A549 cells. For FIG. 30F, Muc5ac-Luc cells were cultured in pH 6.4 buffered medium with and without OGM2 for 24 hours. Cell lysates were then assayed for luciferase activity and normalized to untreated control. See results in FIG. 30F.
# U87 = assay: Immunogenic cell death markers (CRT externalization, ATP secretion); format: cell-based, human
# Description: OGM2 treatment of […] increases makers of immunogenic cell death (ICD, such as release of ATP into the extracellular environment ([…]) and calreticulin (CRT) externalization (FIG. 94B and FIG. 94C). Extracellular ATP content was assessed using the Enliten Atp Assay System (PROMEGA) (FIG. 94A). Calreticulin (CRT) externalization 3- and 6-hours post-treatment (see FIG. 94B and FIG. 94C) in U87 cells was assessed using immunofluorescence analysis using polyclonal antibody against calreticulin (Invitrogen™). Immunogenic cell death (ICD) is defined by expression or release of damage-associated molecular patterns (DAMPs), including extracellular ATP release and calreticulin externalization, which stimulate antitumor immune response, which in turn contributes to long-lasting protective antitumor immunity. […]
# For the CRT externalization assay, U87 cells were seeded on 96-well plate, then treated with DMSO, […] (DOX), […] and […] (shown as OGM in the figures). […] Cells labelled with CRT were counted automatically with Lionheart™ automated microscope and % of CRT+ cells calculated. […]
# For the ATP secretion assay, U87 cells were seeded on 96-well plate, then treated with DMSO, […] (DOX), […] and […] (OGM). At 6 hours, extracellular ATP levels were measured using the ENLITEN ATP Assay (Promega™). […]
# HCT 116 = assay: Cell Titer-Glo viability, Colorectal adenocarcinoma; format: cell-based; conditions: 72 hours
# Description: (§1) OGM2 kills wide variety of cancer cell types. Cell sensitivity can be classified in to Very Sensitive (LC50<2 μM), Sensitive (LC50=2 to 10 μM), Mildly Sensitive (LC50>10 μM), and Refractory (no killing at 10 μM). The listed established cell were incubated with OGM2 at 2 μM or 10 μM for 72 hours under standard cell culture conditions, and relative cell number was assessed using Cell Titer-Glo Luminescent Cell Viability Assay (Promega™) following the manufacturer's instructions. Luminescence was determined using a Cytation 5 reader and Gen5 software package (BioTek™).
# (§2) Cancer cells, which are very sensitive to killing by OGM2 (LCs <2 μM), with reported mRNA expression of GPR68 and the related proton sensing receptor GPR4. LC50's (concentrations causing 50% lethality) were determined using CellTiter-Glo (Promega™, G7570). Cells were plated in 12-well plates (CELLTREAT Scientific Products, 229112) in 1 ml of DMEM with high glucose, GlutaMAX, HEPES, or RPMI 1640 with Penicillin-Streptomycin (ThermoFisher™, 10564029, 11875119 and 15140122) and 10% FBS. Cells were incubated overnight at 37° C. in 5% CO2. Then 1 mL of fresh media was added with DMSO, OGM, or positive control (Erastin; APExBIO Technology, LLC, B1524) and cells incubated for 3 days. On the third day, all media was removed, cells were rinsed with 1×PBS, PBS was removed, and 200 μL of 1× Passive Lysis Buffer (Promega™, E1941) was added to each well. […]. Subsequently, 20 μL of lysate was added to 100 μL CellTiter-Glo™ reagent on a LUMITRAC 200 plate (Greiner™ bio-one, 82050-726). Plates were briefly spun down and read on a GloMax-Multi Detection System (Promega™).
# (§3) The cells listed in the tables above were incubated with OGM2 at 2 μM or 10 μM for 72 hours under standard cell culture conditions, and relative cell number was assessed using Cell Titer-Glo Luminescent Cell Viability Assay (Promega™) following the manufacturer's instructions. Luminescence was determined using a Cytation 5 reader and Gen5 software package (BioTek™). RNA expression of GPR68 and GPR4 in the corresponding cancer cell lines are listed, according to the publicly available The Human Protein Atlas version 22.0 and Ensembl version 103.38 (see proteinatlas.org). The consensus normalized expression value (“nTPM”=normalize transcript per million) was calculated as the maximum nTPM value for each gene in the two data sources.
# RKO = assay: as above; format: cell-based
# Description: as §1, §2, §3
# T1 sequence (P04626 23-1255): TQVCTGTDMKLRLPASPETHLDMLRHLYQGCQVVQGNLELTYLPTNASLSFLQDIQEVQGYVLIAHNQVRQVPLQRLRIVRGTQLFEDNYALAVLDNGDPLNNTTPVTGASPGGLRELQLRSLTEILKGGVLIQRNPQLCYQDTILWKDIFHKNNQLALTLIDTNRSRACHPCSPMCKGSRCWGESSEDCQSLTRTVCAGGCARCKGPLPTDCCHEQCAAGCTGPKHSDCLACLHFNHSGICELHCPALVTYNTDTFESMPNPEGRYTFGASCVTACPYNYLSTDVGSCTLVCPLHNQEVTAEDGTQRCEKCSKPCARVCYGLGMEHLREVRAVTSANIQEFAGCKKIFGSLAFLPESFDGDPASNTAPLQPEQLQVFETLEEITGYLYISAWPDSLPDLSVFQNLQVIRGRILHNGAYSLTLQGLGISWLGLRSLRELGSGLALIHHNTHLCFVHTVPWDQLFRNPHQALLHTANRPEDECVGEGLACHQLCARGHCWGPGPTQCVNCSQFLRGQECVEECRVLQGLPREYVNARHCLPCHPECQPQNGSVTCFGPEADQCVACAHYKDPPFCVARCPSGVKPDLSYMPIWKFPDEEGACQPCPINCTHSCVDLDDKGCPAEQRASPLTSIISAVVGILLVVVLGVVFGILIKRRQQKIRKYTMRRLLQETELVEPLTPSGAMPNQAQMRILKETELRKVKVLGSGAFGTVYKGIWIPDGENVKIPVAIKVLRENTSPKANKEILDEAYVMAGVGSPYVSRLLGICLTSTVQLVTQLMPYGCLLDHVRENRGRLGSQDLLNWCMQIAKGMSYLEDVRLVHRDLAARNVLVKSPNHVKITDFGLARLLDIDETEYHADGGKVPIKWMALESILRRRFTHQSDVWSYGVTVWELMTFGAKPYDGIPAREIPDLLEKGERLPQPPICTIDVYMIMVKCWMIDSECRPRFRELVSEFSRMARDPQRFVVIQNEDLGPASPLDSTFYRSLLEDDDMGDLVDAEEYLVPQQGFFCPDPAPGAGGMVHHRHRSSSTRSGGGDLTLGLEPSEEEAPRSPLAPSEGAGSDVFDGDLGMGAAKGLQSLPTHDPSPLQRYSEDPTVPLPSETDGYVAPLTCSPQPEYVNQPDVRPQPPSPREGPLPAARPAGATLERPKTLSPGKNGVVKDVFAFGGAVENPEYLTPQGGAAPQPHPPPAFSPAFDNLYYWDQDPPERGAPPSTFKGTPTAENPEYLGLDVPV
Structure (SMILES),remaining binding at 10 µM (ERBB2) [%],remaining binding at 10 µM (ZAP70) [%],Antagonism (OT; 10 uM),Agonism (OT; 12.5 uM),remaining binding at 10 µM (PRKCD) [%],remaining binding at 10 µM (EPHB1) [%],Mucin production (A549),externalization of CRT (U87; 3 hours of treatment),secretion of ATP (U87; 6 hours),% Survival 2 μM OGM (HCT 116) [%],% Survival 10 μM OGM (HCT 116) [%],"CC50 (HCT 116; Homo sapiens, HCT-116, read-out: LC50 (the source's name)) [nM]",Class (RKO),% Survival 2 μM OGM (RKO; 72 hours) [%],% Survival 10 μM OGM (RKO; 72 hours) [%],"CC50 (RKO; Homo sapiens, RKO, 72 hours, read-out: LC50 (the source's name)) [µM]",Class (RKO; Table 13)
"CCc1ccc2c(c1)C1(NN=C(c3cccc4ccccc34)S1)C(=O)N2 (centres unmarked) [OGM1, 5-ethyl-5′-naphthalen-1-ylspiro[1H-indole-3,2′-3H-1,3,4-thiadiazole]-2-one]",65,73,−2.4,0.7,100,100,,,,,,,,,,,
CCc1ccc2c(c1)C1(NN=C(c3ccccc3)S1)C(=O)N2 (centres unmarked) [OGM2],,,,,,,inhibits Mucin production,significant externalization of CRT,secretion of ATP,44.5,32.7,< 2000,Mildly,92.4,57.6,> 10,Low
